Reference: patent publication US12024504B2, “1-methyl-1H-pyrazol-3-yl derivatives for use in the treatment of neovascular diseases” (EXONATE LIMITED, priority 2021, dated 2024)
Converted amounts (≈) assume the structure as drawn.

Tests used:
[1] = Porcine scleral permeability (modified Ussing chamber); assay type: in vitro ADME; conditions: for Papp at 24 h, 10 μg/mL: pig, pH 7.4, porcine excised eye tissue, 10 μg/mL compound on donor side
Description: Scleral permeability was measured using a modified Ussing chamber assembly in the initial eye drop formulation containing 1% hydroxypropyl methyl cellulose, 0.2% tyloxapol, 3.4% dextrose, 0.006% benzalkonium chloride, and 0.025% ethylenediaminetetraacetic acid with 1% DMSO in PBS (pH 7.4). Porcine excised eye tissues were mounted in the chambers such that the episcleral side faced the donor chamber and the retinal side faced the receiver chamber. The chambers were filled with equal volumes of eye drop formulation, with (donor side) or without (receiver side) 10 μg/mL compound. After 24 hours tissue was removed from the chamber and the receiver side (“vitreous”) sampled. Tissue was dissected into sclera, choroid/RPE, and retina and homogenised. A tracer (SPHINX7; WO 2015/159103) was added, and tissue extracted by acetonitrile extraction as described in Batson et al (2017). Compounds were then analysed by mass spectrometry as described in Batson et al (2017).
To determine whether compounds could get across the sclera of a larger animal, porcine sclera was clamped between two chambers and compounds were added to the sclera with eye drop formulation added to the bottom chamber and compounds added to the top chamber. After 24 hours, the fluid from the bottom chamber (vitreous) and the retinal tissue was isolated and compounds purified by methanol or acetonitrile extraction and HPLC.

SRPK1 = target: T1, SRPK1 (Homo sapiens, UniProt Q96SB4); assay: In vitro kinase assay (radioactive filter binding, 33P ATP); assay type: biochemical
T1 construct: purchased MRC Dundee Kinase Centre (external assay service)
T1 sequence (Q96SB4 whole entry): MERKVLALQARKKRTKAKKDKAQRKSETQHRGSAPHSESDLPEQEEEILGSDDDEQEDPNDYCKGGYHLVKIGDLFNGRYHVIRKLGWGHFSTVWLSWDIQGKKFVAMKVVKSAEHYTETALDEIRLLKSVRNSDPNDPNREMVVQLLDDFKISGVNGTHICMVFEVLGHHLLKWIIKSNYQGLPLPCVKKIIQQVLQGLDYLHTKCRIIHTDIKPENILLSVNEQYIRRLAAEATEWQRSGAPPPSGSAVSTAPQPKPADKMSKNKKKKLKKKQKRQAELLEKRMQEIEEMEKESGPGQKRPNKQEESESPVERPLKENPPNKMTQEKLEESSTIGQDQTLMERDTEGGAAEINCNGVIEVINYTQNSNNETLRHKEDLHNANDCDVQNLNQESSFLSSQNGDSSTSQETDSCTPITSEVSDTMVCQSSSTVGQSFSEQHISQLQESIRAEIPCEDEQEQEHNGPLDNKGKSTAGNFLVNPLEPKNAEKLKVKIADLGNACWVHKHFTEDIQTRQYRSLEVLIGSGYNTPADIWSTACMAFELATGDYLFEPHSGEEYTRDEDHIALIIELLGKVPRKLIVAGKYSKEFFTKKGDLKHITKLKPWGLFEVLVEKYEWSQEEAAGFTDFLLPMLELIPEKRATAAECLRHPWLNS
Description: Kinase assays were carried out by the MRC Dundee Kinase Centre using a radioactive filter binding assay using ^33P ATP (Hastie, et al 2006. Nat Protoc. 2006; 1(2):968-71; Bain, et al 2007. Biochem J. 2007 Dec. 15; 408(3):297-315).

[2] = system: choroidal neovascularisation; conditions: mouse models of choroidal neovascularisation, previously shown; cited from earlier work
[3] = Solubility in eye drop formulation; assay type: physicochemical; conditions: aqueous with cosolvent or surfactant or cyclodextrin; initial eye drop formulation (1% HPMC, 0.2% tyloxapol, 3.4% dextrose, 1% DMSO in PBS); read-out: Maximum limit of solubility
VEGF165b and VEGF165 = conditions: cited from earlier work
[4] = 0.5 mg monthly, at one year; cited from earlier work

`Cn1ccc(CN2CCCN(c3ccc(C(F)(F)F)cc3NC(=O)c3ccc(C4CCOCC4)o3)CC2)n1` [Compound 2, N-(2-(4-((1-methyl-1H-pyrazol-3-yl)methyl)-1,4-diazepan-1-yl)-5-(trifluoromethyl)phenyl)-5-(tetrahydro-2H-pyran-4-yl)furan-2-carboxamide] showed a Papp at 24 h, 10 μg/mL [1] of 0.0442 ×10⁻⁶ cm/s and an IC50 (SRPK1) of 10 nM.

`Cn1ccc(CN2CCCN(c3ccc(Cl)cc3NC(=O)c3ccc(C4CCOCC4)o3)CC2)n1` [Compound 3, N-(5-chloro-2-(4-((1-methyl-1H-pyrazol-3-yl)methyl)-1,4-diazepan-1-yl)phenyl)-5-(tetrahydro-2H-pyran-4-yl)furan-2-carboxamide] showed a Papp at 24 h, 10 μg/mL [1] of 0.0675 ×10⁻⁶ cm/s, an IC50 (SRPK1) of 35 nM and a melting point of 148 to 150 °C.

For `O=C(Nc1cc(C(F)(F)F)ccc1N1CCN(Cc2cc[nH]n2)CC1)c1ccc(C2CCOCC2)o1` [Compound R, N-(2-(4-((1H-pyrazol-3-yl)methyl)piperazin-1-yl)-5-(trifluoromethyl)-phenyl)-5-(tetrahydro-2H-pyran-4-yl)furan-2-carboxamide, reference compound], the “Permeability across porcine sclera (in words)” value ([1]; 24 hours, FIG. 1) was “considerably lower permeability”.

For `O=C(Nc1cc(C(F)(F)F)ccc1N1CCN(Cc2ccccn2)CC1)c1ccc(-c2ccncc2)o1` [SPHINX31], the “Eye drop concentration of maximum effect” value [2] is listed as 2 µg/mL.

In the case of `Cc1ccc(Nc2nccc(N(C)c3ccc4c(C)n(C)nc4c3)n2)cc1S(N)(=O)=O` [pazopanib], the solubility [3] is reported as 80 µg/mL (≈ 183 µM).

For “bevicizumab: an anti-VEGF antibody from which Lucentis was derived”, the “Binding of VEGF165b relative to VEGF165” value (VEGF165b and VEGF165) is listed as “equal potency”.

B1: Lucentis: a novel humanized anti-VEGF antibody fragment (antibody, chains of the INN, looked up, V domains shown)
VH: EVQLVESGGGLVQPGGSLRLSCAASGYDFTHYGMNWVRQAPGKGLEWVGWINTYTGEPTYAADFKRRFTFSLDTSKSTAYLQMNSLRAEDTAVYYCAKYPYYYGTSHWYFDVWGQGTLVTVSS
VL: DIQLTQSPSSLSASVGDRVTITCSASQDISNYLNWYQQKPGKAPKVLIYFTSSLHSGVPSRFSGSGSGTDFTLTISSLQPEDFATYYCQQYSTVPWTFGQGTKVEIK
modifications: Fab
notes: a novel humanized anti-VEGF antibody fragment
In the case of B1, the “Patients who maintained visual acuity (loss of <15 letters)” value [4] is listed as “approximately 95%” and the “Patients with improved vision (gain of ≥15 letters)” value [4] is listed as ≤ 40%.
